Patent US20230295166A1, “ATR INHIBITORS AND USES THEREOF” (ANTENGENE DISCOVERY LIMITED, priority 2020, published 2023)

What was measured:
[1] = molecular target: ATR kinase (Homo sapiens (Human), UniProt Q13535); experiment: ATR inhibition assay (mobility shift assay, phosphorylation of FAM-RAD17); assay type: biochemical; conditions: ATR kinase (Eurofins), substrate FAM-RAD17, mobility shift
Description: Assay 1: ATR Inhibition Assay
Detection of ATR kinase activity utilized the Mobility shift assay to measure the phosphorylation of the substrate protein FAM-RAD17 (GL, Cat. No. 514318, Lot. No. P19042-MJ524315). The assay was developed and conducted at Chempartner. All the test compounds were dissolved in 100% DMSO at concentration of 20 mM, then prepare compounds and conducted the assay as follows: • 1) Transfer 80 μl 20 mM compound to 40 μl of 100% DMSO in a 96-well plate. • 2) Serially dilute the compound by transferring 20 μl to 60 μl of 100% DMSO in the next well and so forth for a total of 10 concentrations. • 3) Add 100 μl of 100% DMSO to two empty wells for no compound control and no enzyme control in the same 96-well plate. Mark the plate as source plate. • 4) Transfer 40 μl of compound from source plate to a new 384-well plate as the intermediate plate. • 5) Transfer 60 nl compounds to assay plate by Echo. • 6) Add ATR kinase (Eurofins, Cat. No. 14-953, Lot. No. D14 JP007N) into Kinase base buffer (50 mM HEPES, pH 7.5; 0.0015% Brij-35; 0.01% Triton) to prepare 2× enzyme solution, then add 10 μl of 2× enzyme solution to each well of the 384-well assay plate, incubate at room temperature for 10 min. • 7) Add FAM-RAD17 and ATP (Sigma, Cat. No. A7699-1G, CAS No. 987-65-5) in the kinase base buffer to prepare 2×peptide solution, then add 10 μl to the assay plate. • 8) Incubate at 28° C. for specified period of time. Add 40 μl of stop buffer (100 mM HEPES, pH 7.5; 0.015% Brij-35; 0.2% Coating Reagent #3; 50 mM EDTA) to stop reaction. • 9) Collect data on Caliper. Convert conversion values to inhibition values.
Percent inhibition=(max−conversion)/(max−min)*100 wherein “max” stands for DMSO control; “min” stands for low control.
Fit the data in XLFit excel add-in version 5.4.0.8 to obtain IC50 values. Equation used is:
Y=Bottom+(Top−Bottom)/(1+(IC50/X)^HillSlope) wherein X means concentration in a format not transformed to logarithms.

[2] = tested on: LoVo (CCL-229) cells; experiment: Tumor cell anti-proliferation assay (CTG assay); assay type: cell-based; conditions: LoVo human colorectal cancer cells, 96 h, CellTiter-Glo
Description: Assay 2: Tumor Cell Anti-proliferation Assay (CTG Assay)
Human colorectal cancer cells HT-29 (HTB-38) and LoVo (CCL-229) were selected for the CTG assay, the two cell lines were originally obtained from the American Type Culture Collection (ATCC). FBS and appropriate additives were added into base medium to prepare complete medium, then the cell layer was briefly rinsed with 0.25% (w/v) Trypsin-0.038% (w/v) EDTA solution to remove all traces of serum that contains trypsin inhibitor. After that, appropriate volume of Trypsin-EDTA solution was added to flask and cells under an inverted microscope were observed until cell layer was dispersed. At last, appropriate volume of complete growth medium was added and cells were aspirated by gently pipetting. Numbers were collected and counted with Vi-cell XR and cell density was adjusted, cells were seeded into 96-well opaque-walled clear bottom tissue-culture treated plates in the CO2 incubator for 20-24 hours. All the test compounds were at 10 mM in DMSO. Compounds were then added to the cell media in 3-fold serial dilutions, the final DMSO concentration was 0.5%. Plates were incubated for 96 h at 5% CO2, 37° C. Before the measurement, the appropriate volume of CellTiter-Glo Buffer was transferred into the amber bottle containing CellTiter-Glo substrate to reconstitute the lyophilized enzyme/substrate mixture, mixed gently, thereby forming the CellTiter-Glo Reagent (Promega Cat. No. G7573). The plate and its contents were equilibrated to room temperature for approximately 30 minutes, then 100 μL of CellTiter-Glo Reagent was added to the assay plate, the contents were mixed for 2 minutes on an orbital shaker to induce cell lysis, incubated at room temperature for 10 minutes to stabilize luminescent signal. At last the clear bottom was pasted with white back seal and luminescence was recorded with Enspire. IC50 and GI50 values were calculated with XLFit curve fitting software using 4 Parameter Logistic Model Y=Bottom+(Top−Bottom)/(1+(IC50/X)^HillSlope).

Chain of ATR kinase (Q13535 whole entry): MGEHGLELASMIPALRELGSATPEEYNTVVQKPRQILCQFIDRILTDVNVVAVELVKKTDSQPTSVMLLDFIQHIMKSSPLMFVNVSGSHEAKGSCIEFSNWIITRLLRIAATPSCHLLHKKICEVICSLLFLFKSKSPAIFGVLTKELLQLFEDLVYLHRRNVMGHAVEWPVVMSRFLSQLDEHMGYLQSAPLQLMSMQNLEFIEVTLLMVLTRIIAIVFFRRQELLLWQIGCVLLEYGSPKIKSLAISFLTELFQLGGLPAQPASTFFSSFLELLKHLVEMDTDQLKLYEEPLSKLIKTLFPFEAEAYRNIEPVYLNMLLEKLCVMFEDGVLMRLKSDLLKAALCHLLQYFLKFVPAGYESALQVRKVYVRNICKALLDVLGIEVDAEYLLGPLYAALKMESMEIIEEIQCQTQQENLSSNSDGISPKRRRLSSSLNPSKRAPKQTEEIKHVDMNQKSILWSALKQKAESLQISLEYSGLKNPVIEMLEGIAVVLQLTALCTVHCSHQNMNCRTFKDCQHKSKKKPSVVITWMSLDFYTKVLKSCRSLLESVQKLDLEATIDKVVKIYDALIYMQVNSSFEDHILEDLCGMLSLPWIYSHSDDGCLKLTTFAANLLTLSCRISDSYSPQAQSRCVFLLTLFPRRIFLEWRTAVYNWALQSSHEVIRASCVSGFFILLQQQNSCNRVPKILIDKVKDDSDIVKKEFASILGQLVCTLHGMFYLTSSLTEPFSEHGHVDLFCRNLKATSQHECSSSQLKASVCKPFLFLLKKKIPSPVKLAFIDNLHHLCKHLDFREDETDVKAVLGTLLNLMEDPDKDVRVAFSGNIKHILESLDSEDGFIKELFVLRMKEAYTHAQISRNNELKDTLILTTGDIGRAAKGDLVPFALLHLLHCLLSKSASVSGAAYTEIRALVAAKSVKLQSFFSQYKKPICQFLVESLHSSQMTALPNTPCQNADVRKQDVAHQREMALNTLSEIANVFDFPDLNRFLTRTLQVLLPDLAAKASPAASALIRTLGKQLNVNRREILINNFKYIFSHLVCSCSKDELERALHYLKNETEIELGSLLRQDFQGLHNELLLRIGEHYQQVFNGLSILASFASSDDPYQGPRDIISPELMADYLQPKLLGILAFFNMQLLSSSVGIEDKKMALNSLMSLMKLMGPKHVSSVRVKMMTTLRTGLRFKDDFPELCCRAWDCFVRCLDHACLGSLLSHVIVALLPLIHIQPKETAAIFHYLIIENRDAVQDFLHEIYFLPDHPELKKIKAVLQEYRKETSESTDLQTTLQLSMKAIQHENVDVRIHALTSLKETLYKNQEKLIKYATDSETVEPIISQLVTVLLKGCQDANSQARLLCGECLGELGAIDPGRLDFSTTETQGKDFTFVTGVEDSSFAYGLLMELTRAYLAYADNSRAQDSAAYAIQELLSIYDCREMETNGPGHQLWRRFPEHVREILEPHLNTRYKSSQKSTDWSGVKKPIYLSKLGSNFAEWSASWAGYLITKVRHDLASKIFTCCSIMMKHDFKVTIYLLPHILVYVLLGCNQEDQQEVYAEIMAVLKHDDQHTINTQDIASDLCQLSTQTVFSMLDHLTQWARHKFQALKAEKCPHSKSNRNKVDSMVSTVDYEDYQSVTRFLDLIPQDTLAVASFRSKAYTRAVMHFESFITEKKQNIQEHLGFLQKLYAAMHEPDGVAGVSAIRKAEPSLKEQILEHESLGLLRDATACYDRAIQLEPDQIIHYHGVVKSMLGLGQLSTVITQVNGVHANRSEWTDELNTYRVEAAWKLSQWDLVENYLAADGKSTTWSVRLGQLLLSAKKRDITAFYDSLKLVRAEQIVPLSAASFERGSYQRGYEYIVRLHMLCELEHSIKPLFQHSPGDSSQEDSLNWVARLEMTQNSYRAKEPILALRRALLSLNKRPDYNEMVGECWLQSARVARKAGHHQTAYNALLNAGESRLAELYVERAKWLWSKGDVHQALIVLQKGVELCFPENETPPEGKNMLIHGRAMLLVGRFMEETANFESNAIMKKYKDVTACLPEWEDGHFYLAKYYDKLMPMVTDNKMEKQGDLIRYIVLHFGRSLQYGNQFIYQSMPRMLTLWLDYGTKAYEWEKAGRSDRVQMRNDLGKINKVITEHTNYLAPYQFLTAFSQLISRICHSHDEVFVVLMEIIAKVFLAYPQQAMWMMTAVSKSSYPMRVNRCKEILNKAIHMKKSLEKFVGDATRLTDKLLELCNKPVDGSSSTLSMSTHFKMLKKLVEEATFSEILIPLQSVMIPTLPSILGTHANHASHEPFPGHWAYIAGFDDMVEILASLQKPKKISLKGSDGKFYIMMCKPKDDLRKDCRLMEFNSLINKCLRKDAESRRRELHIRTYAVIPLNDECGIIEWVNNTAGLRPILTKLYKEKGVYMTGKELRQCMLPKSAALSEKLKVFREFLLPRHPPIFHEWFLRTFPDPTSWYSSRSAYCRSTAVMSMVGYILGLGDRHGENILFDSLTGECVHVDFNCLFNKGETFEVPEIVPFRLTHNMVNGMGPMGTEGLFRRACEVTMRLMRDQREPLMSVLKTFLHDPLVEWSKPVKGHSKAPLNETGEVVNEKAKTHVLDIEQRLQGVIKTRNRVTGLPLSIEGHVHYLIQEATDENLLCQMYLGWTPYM
Chain of ATR kinase (Q8WXE1 whole entry partner): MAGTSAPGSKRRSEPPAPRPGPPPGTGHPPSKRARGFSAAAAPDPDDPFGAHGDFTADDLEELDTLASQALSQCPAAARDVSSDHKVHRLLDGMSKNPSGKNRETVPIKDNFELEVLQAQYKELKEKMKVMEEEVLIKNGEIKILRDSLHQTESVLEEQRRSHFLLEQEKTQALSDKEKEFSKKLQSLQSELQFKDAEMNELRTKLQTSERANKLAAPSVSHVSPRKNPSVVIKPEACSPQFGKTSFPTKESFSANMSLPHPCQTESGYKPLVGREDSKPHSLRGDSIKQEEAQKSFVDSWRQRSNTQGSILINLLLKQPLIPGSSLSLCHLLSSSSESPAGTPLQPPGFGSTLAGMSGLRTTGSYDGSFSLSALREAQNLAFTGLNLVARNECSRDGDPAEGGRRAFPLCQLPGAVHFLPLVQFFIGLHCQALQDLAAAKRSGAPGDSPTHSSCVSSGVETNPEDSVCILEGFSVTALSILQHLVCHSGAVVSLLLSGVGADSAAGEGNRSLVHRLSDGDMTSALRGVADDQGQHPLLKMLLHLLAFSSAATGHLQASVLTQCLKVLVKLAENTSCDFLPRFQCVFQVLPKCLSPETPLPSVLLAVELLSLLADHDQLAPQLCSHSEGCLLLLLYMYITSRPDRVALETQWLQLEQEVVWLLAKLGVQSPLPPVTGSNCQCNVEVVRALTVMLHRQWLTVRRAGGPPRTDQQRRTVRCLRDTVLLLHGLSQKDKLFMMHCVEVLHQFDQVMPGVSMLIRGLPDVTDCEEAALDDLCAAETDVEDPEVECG

| Compound | IC50 [1] | IC50 [2] |
| --- | --- | --- |
| Cc1cc(-c2ncc3c(C(C)(C)C#N)cc(N4CCOC[C@H]4C)nn23)[nH]n1 [Example 64, (R)-2-methyl-2-(7-(3-methyl-1H-pyrazol-5-yl)-2-(3-methylmorpholino)imidazo[1,5-b]pyridazin-4-yl)propanenitrile] | < 100 nM | 15.1 nM |
| C[C@@H]1COCCN1c1cc(C2(C#N)CCOCC2)c2snc(-c3ccn[nH]3)c2n1 [Example 83, (R)-4-(5-(3-methylmorpholino)-3-(1H-pyrazol-5-yl)isothiazolo[4,5-b]pyridin-7-yl)tetrahydro-2H-pyran-4-carbonitrile] | < 100 nM | 14 nM |
| Cc1cc(-c2nsc3c(C(C)(C)S(C)(=O)=O)cc(N4CCOC[C@H]4C)nc23)[nH]n1 [Example 56, (R)-3-methyl-4-(3-(3-methyl-1H-pyrazol-5-yl)-7-(2-(methylsulfonyl)propan-2-yl)isothiazolo[4,5-b]pyridin-5-yl)morpholine] | < 100 nM | 19 nM |
| Cc1cc(-c2nc(Cl)c3c(-c4ccnn4C)cc(N4CCOC[C@H]4C)nn23)[nH]n1 [Example 62, (3R)-4-[5-chloro-4-(1-methyl-1H-pyrazol-5-yl)-7-(3-methyl-1H-pyrazol-5-yl)imidazo[1,5-b]pyridazin-2-yl]-3-methylmorpholine] | < 100 nM | 14.6 nM |
| C[C@@H]1COCCN1c1cc(N2CCCCS2(=O)=O)c2snc(-c3ccn[nH]3)c2n1 [Example 76, (R)-2-(5-(3-methylmorpholino)-3-(1H-pyrazol-5-yl)isothiazolo[4,5-b]pyridin-7-yl)-1,2-thiazinane 1,1-dioxide] | < 100 nM | 24.3 nM |
| Cc1cc(-c2nsc3c(C4(C#N)CCCCC4)cc(N4CCOC[C@H]4C)nc23)[nH]n1 [Example 81, (R)-1-(3-(3-methyl-1H-pyrazol-5-yl)-5-(3-methylmorpholino)isothiazolo[4,5-b]pyridin-7-yl)cyclohexane-1-carbonitrile] | < 100 nM | 10 nM |
| C[C@@H]1COCCN1c1cc(C(C)(C)S(C)(=O)=O)c2snc(-c3ccn[nH]3)c2n1 [Example 55, (R)-3-methyl-4-(7-(2-(methylsulfonyl)propan-2-yl)-3-(1H-pyrazol-5-yl)isothiazolo[4,5-b]pyridin-5-yl)morpholine] | < 100 nM | 13.7 nM |
| C[C@@H]1COCCN1c1cc(-c2cccnc2F)n2ncc(-c3ccn[nH]3)c2n1 [Example 6, (R)-4-(7-(2-fluoropyridin-3-yl)-3-(1H-pyrazol-5-yl)pyrazolo[1,5-a]pyrimidin-5-yl)-3-methylmorpholine] | < 100 nM | 803 nM |
| Cc1cc(-c2ncc3c(C4(C#N)CC4)cc(N4CCOC[C@H]4C)nn23)[nH]n1 [Example 63, (R)-1-(7-(3-methyl-1H-pyrazol-5-yl)-2-(3-methylmorpholino)imidazo[1,5-b]pyridazin-4-yl)cyclopropane-1-carbonitrile] | < 100 nM | 38.9 nM |
| Cc1cc(-c2nsc3c(C4(C#N)CCOCC4)cc(N4CCOC[C@H]4C)nc23)[nH]n1 [Example 84, (R)-4-(3-(3-methyl-1H-pyrazol-5-yl)-5-(3-methylmorpholino)isothiazolo[4,5-b]pyridin-7-yl)tetrahydro-2H-pyran-4-carbonitrile] | < 100 nM | 9 nM |
| Cc1cc(-c2nsc3c(S(=O)(=O)C4CC4)cc(N4CCOC[C@H]4C)nc23)[nH]n1 [Example 85, (R)-4-(7-(cyclopropylsulfonyl)-3-(3-methyl-1H-pyrazol-5-yl)isothiazolo[4,5-b]pyridin-5-yl)-3-methylmorpholine] | < 100 nM | 4 nM |
| C[C@@H]1COCCN1c1cc(S(=O)(=O)C2CC2)c2snc(-c3ccn[nH]3)c2n1 [Example 75, (R)-4-(7-(cyclopropylsulfonyl)-3-(1H-pyrazol-5-yl)isothiazolo[4,5-b]pyridin-5-yl)-3-methylmorpholine] | < 100 nM | 15.3 nM |
| C[C@@H]1COCCN1c1cc(C(C)(C)C#N)c2snc(-c3ccn[nH]3)c2n1 [Example 53, (R)-2-methyl-2-(5-(3-methylmorpholino)-3-(1H-pyrazol-5-yl)isothiazolo [4,5-b]pyridin-7-yl)propanenitrile] | < 100 nM | 12.8 nM |
| C[C@@H]1COCCN1c1cc(C2(C#N)CCCCC2)c2cnc(-c3ccn[nH]3)n2n1 [Example 60, (R)-1-(2-(3-methylmorpholino)-7-(1H-pyrazol-5-yl)imidazo[1,5-b]pyridazin-4-yl)cyclohexane-1-carbonitrile] | < 100 nM | 4.1 nM |
| C[C@@H]1COCCN1c1cc(C2(S(C)(=O)=O)CC2)c2cnc(-c3ccn[nH]3)n2n1 [Example 30, (R)-3-methyl-4-(4-(1-(methylsulfonyl)cyclopropyl)-7-(1H-pyrazol-5-yl)imidazo[1,5-b]pyridazin-2-yl)morpholine] | < 100 nM | 152 nM |
| C[C@@H]1COCCN1c1cc(C2(C#N)CCCC2)c2snc(-c3ccn[nH]3)c2n1 [Example 57, (R)-1-(5-(3-methylmorpholino)-3-(1H-pyrazol-5-yl)isothiazolo[4,5-b]pyridin-7-yl)cyclopentane-1-carbonitrile] | < 100 nM | 2.5 nM |
| Cc1cc(-c2nsc3c(C4(C#N)CCCC4)cc(N4CCOC[C@H]4C)nc23)[nH]n1 [Example 80, (R)-1-(3-(3-methyl-1H-pyrazol-5-yl)-5-(3-methylmorpholino)isothiazolo[4,5-b]pyridin-7-yl)cyclopentane-1-carbonitrile] | < 100 nM | 10 nM |
| Cc1cc(-c2ncc3c(C4(S(C)(=O)=O)CC4)cc(N4CCOC[C@H]4C)nn23)[nH]n1 [Example 31, (R)-3-methyl-4-(7-(3-methyl-1H-pyrazol-5-yl)-4-(1-(methylsulfonyl)cyclopropyl)imidazo[1,5-b]pyridazin-2-yl)morpholine] | < 100 nM | 84 nM |
| C[C@@H]1COCCN1c1cc(-c2ccnn2C)c2ncc(-c3ccn[nH]3)n2n1 [Example 21, (R)-3-methyl-4-(8-(1-methyl-1H-pyrazol-5-yl)-3-(1H-pyrazol-5-yl)imidazo[1,2-b]pyridazin-6-yl)morpholine] | < 100 nM | – |
| C[C@@H]1COCCN1c1cc(C2([S@@](C)(=N)=O)CC2)n2ncc(-c3ccn[nH]3)c2n1 [Example 7b, (S)-imino(methyl)(1-(5-((R)-3-methylmorpholino)-3-(1H-pyrazol-5-yl)pyrazolo[1,5-a]pyrimidin-7-yl)cyclopropyl)-λ6-sulfanone] | < 100 nM | – |
| C[C@@H]1COCCN1c1cc(-c2ccnn2C)n2ncc(-c3ccc[nH]3)c2n1 [Example 4, (R)-3-methyl-4-(7-(1-methyl-1H-pyrazol-5-yl)-3-(1H-pyrrol-2-yl)pyrazolo[1,5-a]pyrimidin-5-yl)morpholine] | < 100 nM | – |
| C[C@@H]1COCCN1c1cc(-c2ccn[nH]2)n2ncc(-c3ccn[nH]3)c2n1 [Example 10, (R)-4-(3,7-di(1H-pyrazol-5-yl)pyrazolo[1,5-a]pyrimidin-5-yl)-3-methylmorpholine] | < 100 nM | – |
| C[C@@H]1COCCN1c1cc(C2(S(C)(=O)=O)CC2)n2ncc(-c3ccc[nH]3)c2n1 [Example 8, (R)-3-methyl-4-(7-(1-(methylsulfonyl)cyclopropyl)-3-(1H-pyrrol-2-yl)pyrazolo[1,5-a]pyrimidin-5-yl)morpholine] | < 100 nM | – |
